# According to patent US7112564B2, “Biodegradable glucosaminemuramyl peptides for apoptosis modulation” (Zylacta Corporation, priority 2003, dated 2006):
# Test system: A549 cells (human lung cancer)
# Test: Inhibition of TNF alpha cytotoxicity (LDH release into culture supernatant)
# Type: cell-based
# Details: ingredient at 1 ug/ml, FIG. 2
# Procedure: A549 cells (human lung cancer) were seeded in six-well plates, and after 24 h (70% confluence) treated with 25 ug/ml cycloheximide (CHX) and either 100 U/ml human TNF (Beoringer) or an agonist monoclonal antibody to FAS (Panerva) in concentration 200 ng/ml. GMDP, and GMHP were added just prior to the cytokine in the concentrations discussed in the figure legends. Twenty hours after the treatment 20 ul of the cultured supernatant was removed and tested for the LDH activity in 96 well plates in triplicate. Samples were assayed on an EL340 Microplate reader (Biotec Instruments, Inc) at 490-nm wavelength.
# The purpose of this experiment was to show the synergistic effect of NAG and D-glutamine on LDH release. Technically the experiment was similar to example 1. Both ingredients were added in concentration 1 ug/ml. […] Almost 50% inhibition of LDH activity was noticed for NAG+D-glutamine composition. […] The glucosamine muramyl hexapeptide has 3 D-amino acids while GMDP has only one D-isoglutamine.
compound,measurement,value
NC(=O)CC[C@H](N)C(=O)O [L-glutamine],protection of cells from TNF alpha cytotoxicity (LDH release),does not protect cells from TNF alpha cytotoxicity
